In BindingDB's records for patent WO2025045746 (695 Avenue de la Résistance, 2025) one finds IC50 data, which are given here for 57 compounds.

Usually IC50 stands for the concentration that gives 50% inhibition.

The target in the test is T1, NAD(+) hydrolase SARM1 [28-724] (UniProt Q6SZW1).
T1 construct: 28-724
T1 sequence (Q6SZW1 whole entry): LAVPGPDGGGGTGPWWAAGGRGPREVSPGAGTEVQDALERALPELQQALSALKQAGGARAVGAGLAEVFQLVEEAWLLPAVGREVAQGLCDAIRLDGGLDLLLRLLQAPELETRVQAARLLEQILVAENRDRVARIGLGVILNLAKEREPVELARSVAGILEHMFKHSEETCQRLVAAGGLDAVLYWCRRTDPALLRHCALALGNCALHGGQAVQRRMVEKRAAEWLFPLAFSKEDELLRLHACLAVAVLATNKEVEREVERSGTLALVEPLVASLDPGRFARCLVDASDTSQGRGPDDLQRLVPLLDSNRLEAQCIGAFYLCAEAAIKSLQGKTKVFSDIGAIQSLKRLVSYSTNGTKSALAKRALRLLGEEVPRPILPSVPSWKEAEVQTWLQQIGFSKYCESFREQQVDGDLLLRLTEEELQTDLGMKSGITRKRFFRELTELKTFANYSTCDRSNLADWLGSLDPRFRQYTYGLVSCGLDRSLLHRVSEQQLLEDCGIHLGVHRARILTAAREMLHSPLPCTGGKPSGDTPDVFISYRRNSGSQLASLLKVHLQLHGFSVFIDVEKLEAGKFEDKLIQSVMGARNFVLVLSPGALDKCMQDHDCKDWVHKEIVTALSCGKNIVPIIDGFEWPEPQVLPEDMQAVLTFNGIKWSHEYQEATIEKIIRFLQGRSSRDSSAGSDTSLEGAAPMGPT
The experiment in a line: SARM1 Inhibitory Activity. The procedure:
Assay reagents were prepared in 25mM HEPES pH 7.2, 50mM NaCl, 1mM EDTA and 0.0025% Tween20. […] The peak area of NAD and linear ADPR were measured by a RapidFire High Throughput Mass Spectrometry System (Agilent Technologies, Santa Clara, CA) using an API5000 triple quadrupole mass spectrometer (AB Sciex Framingham, MA). The ratio of linear ADPR to NAD peak area was then plotted against compound concentration to obtain an IC50 as fitted via non-linear regression.
The compound `O=C(c1[nH]nc(-c2ccnnc2)c1F)N1CC[C@H](c2ccc(Cl)cc2)C1` [WO2025045746, Example 63] registered an IC50 of 95 nM.
Under `O=C(c1cc(-c2ccnnc2)n[nH]1)N1CCC(F)(c2cc(F)cc(F)c2)C1` (configuration not stated) [WO2025045746, Example 15] stands 3740 nM.
`Cc1ccc(C2CCN(C(=O)c3cc(-c4ccnnc4)n[nH]3)C2)cc1` (configuration not stated) [WO2025045746, Example 14] returned an IC50 of 2910 nM.
`O=C(c1cc(-c2ccncc2)n[nH]1)N1CC[C@H](c2ccc(Cl)nc2)C1` [WO2025045746, Example 28] yielded a half-maximal inhibitory concentration (IC50) of 682 nM.
In turn, `O=C(c1cc(-c2ccnnc2)n[nH]1)N1CCC(F)(c2ccc(F)c(F)c2)C1` (configuration not stated) [WO2025045746, Example 23] yielded an IC50 of 2270 nM.
Under `O=C(c1cc(-c2ccnnc2)n[nH]1)N1C[C@H](c2ccc(Cl)cc2)[C@@H](F)C1` [WO2025045746, Example 76] stands 4500 nM; under `O=C(c1cc(-c2ccncc2)n[nH]1)N1CCC2(CCc3cc(Br)ccc32)C1` (configuration not stated) [WO2025045746, Example 3], 3190 nM.
Turning to `O=C(c1cc(-c2ccnnc2)n[nH]1)N1C[C@@H](CO)[C@H](c2ccc(Cl)cc2)C1` [WO2025045746, Example 60], it took 72 nM to reach half-maximal inhibition (IC50). Against the preceding compound, the IC50 is about 44-fold lower.
On to `O=C(c1cc(-c2ccncc2)n[nH]1)N1CCC(c2ccc(Cl)s2)C1` (configuration not stated) [WO2025045746, Example 9], for which half-maximal inhibition (IC50) required 194 nM.
For `O=C(c1cc(-c2ccnnc2)n[nH]1)N1CC[C@H](c2ccc(F)c(F)c2)C1` [WO2025045746, Example 42], the IC50 turned out to be 183 nM.
Under `C[C@@H]1CN(C(=O)c2cc(-c3ccnnc3)n[nH]2)C[C@H]1c1ccc(Br)cc1` [WO2025045746, Example 52] stands 1360 nM; under `O=C(c1cc(-c2ccnnc2)n[nH]1)N1C[C@@H](O)[C@H](c2ccc(Cl)cc2)C1` [WO2025045746, Example 30], 172 nM.
Under `O=C(c1[nH]nc(-c2ccnnc2)c1F)N1CC[C@@H](c2ccc(Cl)cc2)C1` [WO2025045746, Example 64] stands 492 nM; under `Cc1csc(C2CCN(C(=O)c3cc(-c4ccnnc4)n[nH]3)C2)c1` (configuration not stated) [WO2025045746, Example 48], 7410 nM; under `O=C(c1cc(-c2ccnnc2)n[nH]1)N1C[C@H](O)[C@H](c2ccc(Cl)cc2)C1` [WO2025045746, Example 34], 5920 nM.
In the case of `O=C(c1cc(-c2ccnnc2)n[nH]1)N1C[C@H](c2ccc(Cl)cc2)[C@@H](O)C1` [WO2025045746, Example 31] it was 761 nM.
As to `C[C@H](O)[C@@H]1CN(C(=O)c2cc(-c3ccnnc3)n[nH]2)C[C@H]1c1ccc(Cl)cc1` [WO2025045746, Example 67], the IC50 is 217 nM.
In the case of `O=C(c1cc(-c2ccnnc2)n[nH]1)N1CCC(c2ccc(F)c(F)c2)C1` (configuration not stated) [WO2025045746, Example 17] it was 105 nM.
Under `Cc1c(-c2ccnnc2)n[nH]c1C(=O)N1CCC(c2ccc(Cl)cc2)C1` (configuration not stated) [WO2025045746, Example 5] stands 427 nM.
`O=C(c1[nH]nc(-c2ccnnc2)c1Cl)N1CCC(c2ccc(F)c(F)c2)C1` (configuration not stated) [WO2025045746, Example 47] displayed an IC50 of 142 nM.
In the case of `O=C(c1cc(-c2ccnnc2)n[nH]1)N1C[C@@H](F)[C@H](c2ccc(Cl)cc2)C1` [WO2025045746, Example 75] it was 506 nM.
In the case of `O=C(c1cc(-c2ccncc2)n[nH]1)N1CCC(c2cccc(Cl)c2)C1` (configuration not stated) [WO2025045746, Example 7] it was 1280 nM; in that of `O=C(c1cc(-c2ccnnc2)n[nH]1)N1CCC(c2ccc(Br)s2)C1` (configuration not stated) [WO2025045746, Example 44], 114 nM; in that of `N#C[C@@H]1CN(C(=O)c2cc(-c3ccnnc3)n[nH]2)C[C@H]1c1ccc(Cl)cc1` [WO2025045746, Example 72], 563 nM.
The compound `O=C(c1cc(-c2ccnnc2)n[nH]1)N1CC[C@H](c2cc(Cl)cs2)C1` [WO2025045746, Example 70] gave an IC50 of 214 nM.
Turning to `O=C(c1cc(-c2ccnnc2)n[nH]1)N1CCC(c2ccc(Cl)s2)C1` (configuration not stated) [WO2025045746, Example 10], it took 98 nM to reach half-maximal inhibition (IC50).
For the compound `O=C(c1cc(-c2ccnnc2)n[nH]1)N1CCC(c2ncc(Cl)s2)C1` (configuration not stated) [WO2025045746, Example 38], half-maximal inhibition (IC50) was put at 8300 nM.
The compound `Cc1cnccc1-c1cc(C(=O)N2CC[C@H](c3ccc(Cl)cc3)C2)[nH]n1` [WO2025045746, Example 57] showed a concentration for half-maximal inhibition (IC50) of 2210 nM.
Under `O=C(c1cc(-c2ccnnc2)n[nH]1)N1C[C@H](CO)[C@@H](c2ccc(Cl)cc2)C1` [WO2025045746, Example 61] stands 1240 nM; under `O=C(c1cc(-c2ccnnc2)n[nH]1)N1CC[C@@H](c2ccc(F)c(F)c2)C1` [WO2025045746, Example 41], 57 nM; under `O=C(c1cc(-c2ccncc2F)n[nH]1)N1CCC(c2ccc(Cl)cc2)C1` (configuration not stated) [WO2025045746, Example 36], 1220 nM.
In the case of `C[C@H]1CN(C(=O)c2cc(-c3ccnnc3)n[nH]2)C[C@@H]1c1ccc(Br)cc1` [WO2025045746, Example 53] it was 84 nM; in that of `O=C(c1[nH]nc(-c2ccnnc2)c1Cl)N1CC[C@@H](c2ccc(F)c(F)c2)C1` [WO2025045746, Example 49], 379 nM.
Under `O=C(c1cc(-c2ccnnc2)n[nH]1)N1C[C@H](O)[C@H](c2ccc(Cl)cc2)C1` [WO2025045746, Example 22] stands 9220 nM; under `Cc1sc(C2CCN(C(=O)c3cc(-c4ccnnc4)n[nH]3)C2)cc1Br` (configuration not stated) [WO2025045746, Example 55], 2170 nM.
Regarding `O=C(c1cc(-c2ccncc2)n[nH]1)N1CCC(c2ccccc2)C1` (configuration not stated) [WO2025045746, Example 2], half-maximal inhibition (IC50) was put at 4510 nM. This IC50 is about 2.1-fold higher than that of the compound before.
`O=C(c1cc(-c2ccnnc2)n[nH]1)N1CCC(c2ccc(Cl)c(F)c2)C1` (configuration not stated) [WO2025045746, Example 39] displayed an IC50 of 73 nM.
Compound `O=C(c1cc(-c2ccnnc2)n[nH]1)N1CCC(c2ccc(Br)cc2)C1` (configuration not stated) [WO2025045746, Example 51] came in with an IC50 of 461 nM.
Turning to `Cc1ccc(C2CCN(C(=O)c3cc(-c4ccnnc4)n[nH]3)C2)s1` (configuration not stated) [WO2025045746, Example 45], the IC50 is 1540 nM.
Under `COc1cnccc1-c1cc(C(=O)N2CCC(c3ccc(Cl)cc3)C2)[nH]n1` (configuration not stated) [WO2025045746, Example 79] stands 3050 nM.
For `CC1CC(c2ccccc2)C(C)N1C(=O)c1cc(-c2ccnnc2)n[nH]1` (configuration not stated) [WO2025045746, Example 24], the IC50 was 9480 nM.
With `O=C(c1cc(-c2ccncc2)n[nH]1)N1CC[C@H](c2ccc(Cl)cc2)C1` [WO2025045746, Example 26], the IC50 stood at 194 nM.
In the case of `N#Cc1ccc(C2CCN(C(=O)c3cc(-c4ccnnc4)n[nH]3)C2)s1` (configuration not stated) [WO2025045746, Example 40] it was 746 nM; in that of `O=C(c1[nH]nc(-c2ccnnc2)c1Cl)N1CC[C@H](c2ccc(F)c(F)c2)C1` [WO2025045746, Example 50], 68 nM; in that of `O=C(c1cc(-c2ccncc2)n[nH]1)N1CC(c2ccc(Cl)cc2)C2CCCCC21` (configuration not stated) [WO2025045746, Example 32], 521 nM.
In the case of `O=C(c1cc(-c2ccncc2)n[nH]1)N1CC[C@@H](c2ccc(Cl)nc2)C1` [WO2025045746, Example 29] it was 2830 nM; in that of `O=C(c1[nH]nc(-c2ccnnc2)c1Br)N1CC[C@@H](c2ccc(Cl)cc2)C1` [WO2025045746, Example 59], 1780 nM; in that of `CC1CC(c2ccc(Cl)cc2)CN1C(=O)c1cc(-c2ccnnc2)n[nH]1` (configuration not stated) [WO2025045746, Example 43], 8690 nM.
`N#C[C@H]1CN(C(=O)c2cc(-c3ccnnc3)n[nH]2)C[C@@H]1c1ccc(Cl)cc1` [WO2025045746, Example 73] gave an IC50 of 30 nM. This IC50 is about 290-fold lower than that of the compound before.
Compound `C[C@@H]1C[C@H](c2ccc(F)cc2)CN1C(=O)c1cc(-c2ccnnc2)n[nH]1` [WO2025045746, Example 25] gave an IC50 of 9540 nM.
In the case of `O=C(c1cc(-c2ccnnc2)n[nH]1)N1CCC(c2ccc(Cl)cc2)C1` (configuration not stated) [WO2025045746, Example 4] it was 191 nM.
In the case of `N#Cc1ccc(C2CCN(C(=O)c3cc(-c4ccnnc4)n[nH]3)C2)cc1` (configuration not stated) [WO2025045746, Example 16] it was 2170 nM; in that of `CC1(C)CC(c2ccccc2)CN1C(=O)c1cc(-c2ccncc2)n[nH]1` (configuration not stated) [WO2025045746, Example 11], 7390 nM.
Under `O=C(c1cc(-c2ccnnc2)n[nH]1)N1CCC(c2cnc(Cl)s2)C1` (configuration not stated) [WO2025045746, Example 37] stands 1780 nM.
Turning to `C[C@@H](O)[C@@H]1CN(C(=O)c2cc(-c3ccnnc3)n[nH]2)C[C@H]1c1ccc(Cl)cc1` [WO2025045746, Example 68], the IC50 was 196 nM.
`O=C(c1cc(-c2ccnnc2)n[nH]1)N1CCC(c2ccc(Cl)cn2)C1` (configuration not stated) [WO2025045746, Example 20] returned an IC50 of 9660 nM. This IC50 is about 49-fold higher than that of the compound before.
For the compound `O=C(c1cc(-c2ccnnc2)n[nH]1)N1CC[C@@H](c2cc(Cl)cs2)C1` [WO2025045746, Example 69], it took 749 nM to reach half-maximal inhibition (IC50).
